Experimental data published in US20250179017A1 (GUANGDONG NEWOPP BIOPHARMACEUTICALS CO., LTD., priority 2022, published 2025).
pIC50: −log10 of the molar value.

Molecular target: T1, human EP2 (PTGER2) (Homo sapiens, UniProt P43116)
T1 construct: Cayman Chemical (Human EP2 Reporter Assay Kit)
Assay: EP2 antagonist assay (HEK-293 CNG membrane potential cAMP assay / 293T SEAP reporter assay, PGE2-stimulated)
Assay type: cell-based
Details: EP2 antagonist activity; concentration for 50% inhibition of signal compared to DMSO
How it was run: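 Two formats. In a CRE-SEAP reporter assay, reverse-transfected 293T cells received compound with PGE2 (13 nM final) for 6-8 h, then luminescence was read. In the ACTOne CNG format, HEK-293 cells were preincubated with compound for 15 min at RT, stimulated with 5 nM PGE2 for 30 min, and read by membrane-potential dye fluorescence. IC50 was taken versus DMSO.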

T1 sequence (P43116 whole entry): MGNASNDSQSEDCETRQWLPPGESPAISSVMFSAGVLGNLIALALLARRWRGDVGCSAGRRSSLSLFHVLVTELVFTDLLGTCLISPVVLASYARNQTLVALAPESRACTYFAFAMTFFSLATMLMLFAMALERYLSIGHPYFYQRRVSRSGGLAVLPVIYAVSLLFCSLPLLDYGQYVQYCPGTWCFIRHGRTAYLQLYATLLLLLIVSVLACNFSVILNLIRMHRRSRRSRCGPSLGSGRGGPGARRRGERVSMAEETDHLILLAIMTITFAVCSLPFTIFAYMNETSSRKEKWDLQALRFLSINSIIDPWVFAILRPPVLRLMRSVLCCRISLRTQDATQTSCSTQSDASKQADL

Row | pIC50 | SMILES
1 | 6.00 to 7.00 | O=C(O)c1ccc(C2(NC(=O)c3ccc(Nc4ccc(F)c(F)c4)c4ccn(Cc5ccc(C(F)(F)F)cc5)c34)CC2)cc1 [Example 63, 4-(1-(4-((3,4-difluorophenyl)amino)-1-(4-(trifluoromethyl)benzyl)-1H-indole-7-carboxamido)cyclopropyl)benzoic acid]
2 | > 7.00 | O=C(O)c1ccc(CNC(=O)c2cc(-c3ccccc3)cc3ccn(Cc4ccc(-c5ccc(F)cc5)cc4)c23)cc1 [Example 208, 4-((1-((4′-fluoro-[1,1′-biphenyl]-4-yl)methyl)-5-phenyl-1H-indole-7-carboxamido)methyl)benzoic acid]
3 | ≤ 6.00 | O=C(O)c1ccc(C2(NC(=O)c3cc(-c4cc(F)cc(F)c4)cc4ccn(Cc5ccc(C(F)(F)F)cc5)c34)CC2)cc1 [Example 19, 4-(1-(5-(3,5-difluorophenyl)-1-(4-(trifluoromethyl)benzyl)-1H-indole-7-carboxamido)cyclopropyl)benzoic acid]
4 | 6.00 to 7.00 | O=C(O)c1ccc(CNC(=O)c2ccc(Nc3ccccc3)c3ccn(Cc4cccc(Cl)c4)c23)cc1 [Example 103, 4-((1-(3-chlorobenzyl)-4-(phenylamino)-1H-indole-7-carboxamido)methyl)benzoic acid]
5 | > 7.00 | O=C(O)c1ccc(CNC(=O)c2cc(-c3cc(F)cc(F)c3)cc3cnn(Cc4ccc(C(F)(F)F)cc4)c23)cc1 [Example 99, 4-((5-(3,5-difluorophenyl)-1-(4-(trifluoromethyl)benzyl)-1H-indazole-7-carboxamido)methyl)benzoic acid]
6 | > 7.00 | C[C@H](NC(=O)c1cc(-c2ccccc2)cc2cnn(Cc3ccc4ccccc4c3)c12)c1ccc(C(=O)O)cc1 [Example 167, (S)-4-(1-(1-(naphthalen-2-ylmethyl)-5-phenyl-1H-indazole-7-carboxamido)ethyl)benzoic acid]
7 | > 7.00 | O=C(O)c1ccc(CNC(=O)c2cc(-c3cc(F)cc(C(F)(F)F)c3)cc3ccn(Cc4ccc(C(F)(F)F)cc4)c23)cc1 [Example 11, 4-((5-(3-fluoro-5-(trifluoromethyl)phenyl)-1-(4-(trifluoromethyl)benzyl)-1H-indole-7-carboxamido)methyl)benzoic acid]
8 | > 7.00 | O=C(O)c1ccc(CNC(=O)c2cc(-c3ccc(F)c(F)c3)cc3ccn(Cc4ccc5ccccc5c4)c23)cc1 [Example 216, 4-((5-(3,4-difluorophenyl)-1-(naphthalen-2-ylmethyl)-1H-indole-7-carboxamido)methyl)benzoic acid]
9 | > 7.00 | O=C(O)c1ccc(CNC(=O)c2cc(-c3cccc(Cl)c3)cc3ccn(Cc4ccc(C(F)(F)F)cc4)c23)cc1 [Example 75, 4-((5-(3-chlorophenyl)-1-(4-(trifluoromethyl)benzyl)-1H-indole-7-carboxamido)methyl)benzoic acid]
10 | 6.00 to 7.00 | N#Cc1cccc(Nc2ccc(C(=O)NC3(c4ccc(C(=O)O)cc4)CC3)c3c2ccn3Cc2ccc(C(F)(F)F)cc2)c1 [Example 61, 4-(1-(4-((3-cyanophenyl)amino)-1-(4-(trifluoromethyl)benzyl)-1H-indole-7-carboxamido)cyclopropyl)benzoic acid]
11 | > 7.00 | O=C(O)c1ccc(CNC(=O)c2cc(-c3ccc(F)cc3)cc3ncn(Cc4ccc(C(F)(F)F)cc4)c23)cc1 [Example 172, 4-((5-(4-fluorophenyl)-1-(4-(trifluoromethyl)benzyl)-1H-benzo[d]imidazole-7-carboxamido)methyl)benzoic acid]
12 | 6.00 to 7.00 | O=C(O)c1ccc(CNC(=O)c2cc(-c3ccccc3C(F)(F)F)cc3ccn(Cc4ccc(C(F)(F)F)cc4)c23)cc1 [Example 89, 4-((1-(4-(trifluoromethyl)benzyl)-5-(2-(trifluoromethyl)phenyl)-1H-indole-7-carboxamido)methyl)benzoic acid]
13 | > 7.00 | O=C(O)c1ccc(CNC(=O)c2ccc(Nc3cccc(F)c3)c3ccn(Cc4ccc(C(F)(F)F)cc4)c23)cc1 [Example 72, 4-((4-((3-fluorophenyl)amino)-1-(4-(trifluoromethyl)benzyl)-1H-indole-7-carboxamido)methyl)benzoic acid]
14 | 6.00 to 7.00 | O=C(O)c1ccc(CNC(=O)c2ccc(Nc3ccc(Cl)cc3)c3ccn(Cc4ccc(C(F)(F)F)cc4)c23)cc1 [Example 73, ((4-((4-chlorophenyl)amino)-1-(4-(trifluoromethyl)benzyl)-1H-indole-7-carboxamido)methyl)benzoic acid]
15 | ≤ 6.00 | C[C@@H](NC(=O)c1cc(-c2cc(F)cc(C(F)(F)F)c2)cc2ccn(Cc3ccc(C(F)(F)F)cc3)c12)c1ccc(C(=O)O)cc1 [Example 16, (R)-4-(1-(5-(3-fluoro-5-(trifluoromethyl)phenyl)-1-(4-(trifluoromethyl)benzyl)-1H-indole-7-carboxamido)ethyl)benzoic acid]
16 | > 7.00 | O=C(O)c1ccc(CNC(=O)c2cc(-c3ccc(F)c(F)c3)cc3cnn(Cc4ccc(-c5ccccc5)cc4)c23)cc1 [Example 193, 4-((1-([1,1′-biphenyl]-4-ylmethyl)-5-(3,4-difluorophenyl)-1H-indazole-7-carboxamido)methyl)benzoic acid]
17 | > 7.00 | O=C(O)c1ccc(CNC(=O)c2cc(-c3ccccc3O)cc3ccn(Cc4ccc(C(F)(F)F)cc4)c23)cc1 [Example 86, 4-((5-(2-hydroxyphenyl)-1-(4-(trifluoromethyl)benzyl)-1H-indole-7-carboxamido)methyl)benzoic acid]
18 | 6.00 to 7.00 | O=C(O)c1ccc(C2(NC(=O)c3cc(-c4cc(F)cc(C(F)(F)F)c4)cc4ccn(Cc5ccc(C(F)(F)F)cc5)c34)CC2)cc1 [Example 21, 4-(1-(5-(3-fluoro-5-(trifluoromethyl)phenyl)-1-(4-(trifluoromethyl)benzyl)-1H-indole-7-carboxamido)cyclopropyl)benzoic acid]
19 | ≤ 6.00 | C[C@@H](NC(=O)c1ccc(-c2cc(F)cc(C(F)(F)F)c2)c2ccn(Cc3ccc(C(F)(F)F)cc3)c12)c1ccc(C(=O)O)cc1 [Example 34, (R)-4-(1-(4-(3-fluoro-5-(trifluoromethyl)phenyl)-1-(4-(trifluoromethyl)benzyl)-1H-indole-7-carboxamido)ethyl)benzoic acid]
20 | ≤ 6.00 | C[C@@H](NC(=O)c1ccc(-c2cc(F)cc(F)c2)c2ccn(Cc3ccc(C(F)(F)F)cc3)c12)c1ccc(C(=O)O)cc1 [Example 32, (R)-4-(1-(4-(3,5-difluorophenyl)-1-(4-(trifluoromethyl)benzyl)-1H-indole-7-carboxamido)ethyl) benzoic acid]
21 | > 7.00 | O=C(O)c1ccc(CNC(=O)c2cc(-c3ccc(F)c(Cl)c3)cc3ccn(Cc4ccc(C(F)(F)F)cc4)c23)cc1 [Example 94, 4-((5-(3-chloro-4-fluorophenyl)-1-(4-(trifluoromethyl)benzyl)-1H-indole-7-carboxamido)methyl)benzoic]
22 | > 7.00 | C[C@H](NC(=O)c1cc(-c2cc(F)cc(F)c2)cc2ccn(Cc3ccc(-c4ccc(F)cc4)cc3)c12)c1ccc(C(=O)O)cc1 [Example 214, (S)-4-(1-(5-(3,5-difluorophenyl)-1-((4′-fluoro-[1,1′-biphenyl]-4-yl)methyl)-1H-indole-7-carboxamido)ethyl)benzoic acid]
23 | 6.00 to 7.00 | N#Cc1cccc(-c2cc(C(=O)NC3(c4ccc(C(=O)O)cc4)CC3)c3c(ccn3Cc3cccc(C(F)(F)F)c3)c2)c1 [Example 133, 4-(1-(5-(3-cyanophenyl)-1-(3-(trifluoromethyl)benzyl)-1H-indole-7-carboxamido)cyclopropyl)benzoic acid]
24 | > 7.00 | C[C@H](NC(=O)c1cc(-c2ccccc2)cc2cnn([C@H](C)c3ccc4ccccc4c3)c12)c1ccc(C(=O)O)cc1 [Example 196, 4-((S)-1-(1-((R)-1-(naphthalen-2-yl)ethyl)-5-phenyl-1H-indazole-7-carboxamido)ethyl)benzoic acid]
25 | > 7.00 | C[C@H](NC(=O)c1cc(-c2ccc(F)c(F)c2)cc2cnn(Cc3ccc(-c4ccc(F)cc4)cc3)c12)c1ccc(C(=O)O)cc1 [Example 205, (S)-4-(1-(5-(3,4-difluorophenyl)-1-((4′-fluoro-[1,1′-biphenyl]-4-yl)methyl)-1H-indazole-7-carboxamido)ethyl)benzoic acid]
26 | > 7.00 | O=C(O)c1ccc(CNC(=O)c2cc(-c3ccc(F)cc3)cc3ccn(Cc4ccc5ccccc5n4)c23)cc1 [Example 142, 4-((5-(4-fluorophenyl)-1-(quinolin-2-ylmethyl)-1H-indole-7-carboxamido)methyl)benzoic acid]
27 | 6.00 to 7.00 | N#Cc1cccc(-c2cc(C(=O)NCC34CC(C(=O)O)(C3)C4)c3c(Sc4ccc(C(F)(F)F)cc4)c[nH]c3c2)c1 [Example 119, 3-((6-(3-cyanophenyl)-3-((4-(trifluoromethyl)phenyl)thio)-1H-indole-4-carboxamido)methyl)bicyclo[1.1.1]pentane-1-carboxylic acid]
28 | ≤ 6.00 | O=C(O)c1ccc(C2(NC(=O)c3ccc(-c4cc(F)cc(C(F)(F)F)c4)c4ccn(Cc5ccc(C(F)(F)F)cc5)c34)CC2)cc1 [Example 41, 4-(1-(4-(3-fluoro-5-(trifluoromethyl)phenyl)-1-(4-(trifluoromethyl)benzyl)-1H-indole-7-carboxamido)cyclopropyl)benzoic acid]
29 | > 7.00 | C[C@H](NC(=O)c1cc(-c2ccc(F)cc2)cc2cnn(Cc3ccc(-c4ccc(F)cc4)cc3)c12)c1ccc(C(=O)O)cc1 [Example 203, (S)-4-(1-(1-((4′-fluoro-[1,1′-biphenyl]-4-yl)methyl)-5-(4-fluorophenyl)-1H-indazole-7-carboxamido)ethyl)benzoic acid]
30 | > 7.00 | O=C(O)c1ccc(C2(NC(=O)c3ccc(Nc4cccc(F)c4)c4ccn(Cc5ccc(C(F)(F)F)cc5)c34)CC2)cc1 [Example 67, 4-(1-(4-((3-fluorophenyl)amino)-1-(4-(trifluoromethyl)benzyl)-1H-indole-7-carboxamido)cyclopropyl)benzoic acid]
